We go through 8 compounds from PubChem BioAssay (NCI).

“And” between values parts separate entries of the source, which are not always exact repeats. Identical values can stand only once.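 How tested: cells in 96-well plates exposed to compound for 48 hours at five concentrations. GI50: concentration for 50% inhibition of growth. TGI denotes the concentration required for complete inhibition of growth.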 Where only a bound is given, the exact number is not on record here.

Some test systems named below: 786-0 renal; HCC-2998 colon; MDA-MB-231 breast; NCI-H23 lung; OVCAR-8 ovarian; SK-MEL-28 melanoma; SN12C renal; SNB-19 CNS; UACC-257 melanoma; UACC-62 melanoma.
Common to all, as to assay: inhibition of tumour cell growth, NCI panel, 48 h

`O=S(=O)(NC1=NCCN1C(=S)SN1CCn2c1nsc2=S)c1cccc2ccccc12`: the GI50 is 23.9 µM with 786-0 renal; 21.4 µM in the assay with HCC-2998 colon; 14.7 µM with MDA-MB-231 breast; 20.9 µM with NCI-H23 lung; 17.5 µM in the assay with OVCAR-8 ovarian; 58.6 µM in the assay with SK-MEL-28 melanoma. Moreover, the GI50 is 17.2 µM with SN12C renal, 62.3 µM in the assay on SNB-19 CNS, 24.3 µM in the assay with UACC-257 melanoma and 21 µM with UACC-62 melanoma. Moreover, the TGI in the assay with 786-0 renal was 72.6 µM; with HCC-2998 colon, 53.2 µM; in the assay with MDA-MB-231 breast, 32.5 µM; in the assay with NCI-H23 lung, 80.9 µM; in the assay with OVCAR-8 ovarian it was 43.8 µM; in the assay on SK-MEL-28 melanoma, more than 100 µM. The TGI in the assay with SN12C renal was 37.6 µM; with SNB-19 CNS, more than 100 µM; with UACC-257 melanoma, 97.2 µM; in the assay on UACC-62 melanoma it was 71.6 µM.

Consider `CN(CCCCCl)P(=O)(OCCS(=O)(=O)CC(NC(=O)CCC(N)C(=O)O)C(=O)NC(C(=O)O)c1ccccc1)OCC1OC(n2ccc(N)nc2=O)C(F)(F)C1O` (centres undefined), for which the GI50 is 0.02 µM with 786-0 renal; 24.5 µM with HCC-2998 colon; 14.2 µM with MDA-MB-231 breast; 0.0483 µM in the assay with NCI-H23 lung; less than 0.0172 µM with OVCAR-8 ovarian; 5.06 µM in the assay with SK-MEL-28 melanoma. In addition, the GI50 was 0.59 µM in the assay with SN12C renal, 0.143 µM in the assay on SNB-19 CNS, 25 µM with UACC-257 melanoma and 0.377 µM with UACC-62 melanoma. For the same compound, the TGI in the assay with HCC-2998 colon is more than 100 µM; in the assay with MDA-MB-231 breast, more than 100 µM; in the assay on NCI-H23 lung it was 16.8 µM; in the assay on OVCAR-8 ovarian it was more than 100 µM; with SK-MEL-28 melanoma, more than 100 µM; with SN12C renal, more than 50.9 µM. The TGI was more than 100 µM in the assay on SNB-19 CNS, more than 100 µM in the assay on UACC-257 melanoma and more than 65.4 µM with UACC-62 melanoma.

For `CC(C)c1cnn2c(NCc3ccccc3)cc(NC[C@H]3CCNC[C@@H]3O)nc12`, the GI50 in the assay with 786-0 renal is 0.547 µM and 0.779 µM; in the assay with HCC-2998 colon, 0.534 µM and 0.645 µM; with MDA-MB-231 breast, 0.388 µM and 0.536 µM; in the assay on NCI-H23 lung, 0.463 µM; in the assay with OVCAR-8 ovarian it was 0.555 µM and 0.745 µM; with SK-MEL-28 melanoma it was 0.388 µM and 0.343 µM. In addition, the GI50 is 0.327 µM and 0.378 µM in the assay with SN12C renal; 0.495 µM and 0.611 µM in the assay with SNB-19 CNS; 0.656 µM and 0.716 µM in the assay with UACC-257 melanoma; 0.236 µM and 0.29 µM in the assay on UACC-62 melanoma. Besides, the TGI with 786-0 renal is 12.3 µM and 12.2 µM; with HCC-2998 colon it was 5.55 µM and 3.51 µM; with MDA-MB-231 breast, 7.52 µM and 3.67 µM; in the assay with NCI-H23 lung, 2.98 µM; in the assay with OVCAR-8 ovarian, 11.6 µM and 8.68 µM; with SK-MEL-28 melanoma it was 2.43 µM and 2.41 µM. In addition, the TGI with SN12C renal was 10.5 µM and 6.49 µM; with SNB-19 CNS it was 9.76 µM and 8.48 µM; with UACC-257 melanoma, 4.78 µM and 5.18 µM; with UACC-62 melanoma, 1.96 µM and 1.92 µM.

Turning to `CCNc1cc(-c2cccc(OC(F)(F)F)c2)nc2ccc(N3CCCC3)cc12`, the GI50 with 786-0 renal was 1.56 µM; in the assay on HCC-2998 colon, 2.27 µM; in the assay on MDA-MB-231 breast it was 1.58 µM; in the assay with NCI-H23 lung it was 1.84 µM; with OVCAR-8 ovarian, 2.51 µM; in the assay on SK-MEL-28 melanoma, 1.71 µM. Moreover, the GI50 in the assay on SN12C renal is 1.7 µM; with SNB-19 CNS it was 3.12 µM; in the assay with UACC-257 melanoma it was 1.66 µM; with UACC-62 melanoma, 1.57 µM. In addition, the TGI came out at 3.48 µM in the assay with 786-0 renal; 6.06 µM in the assay with HCC-2998 colon; 3.16 µM with MDA-MB-231 breast; 4.47 µM in the assay with NCI-H23 lung; 8.24 µM in the assay with OVCAR-8 ovarian; 3.74 µM with SK-MEL-28 melanoma. Moreover, the TGI in the assay with SN12C renal stood at 3.97 µM; in the assay on SNB-19 CNS it was 10.9 µM; in the assay on UACC-257 melanoma, 3.46 µM; with UACC-62 melanoma, 3.07 µM.

On to `Cn1c(C(=O)c2ccncc2)cc2ccccc21`, for which the GI50 was more than 100 µM in the assay with 786-0 renal; more than 100 µM in the assay on HCC-2998 colon; 66.5 µM with MDA-MB-231 breast; more than 100 µM in the assay with NCI-H23 lung; 46 µM in the assay with OVCAR-8 ovarian; more than 100 µM in the assay on SK-MEL-28 melanoma. Further, the GI50 with SN12C renal is more than 100 µM; in the assay with SNB-19 CNS it was more than 100 µM; with UACC-257 melanoma, more than 100 µM; in the assay on UACC-62 melanoma, 83.5 µM. Besides, the TGI in the assay on 786-0 renal, in the assay with HCC-2998 colon, with MDA-MB-231 breast, in the assay on NCI-H23 lung, in the assay with OVCAR-8 ovarian and in the assay on SK-MEL-28 melanoma was more than 100 µM each time. The TGI in the assay with SN12C renal, in the assay on SNB-19 CNS, with UACC-257 melanoma and with UACC-62 melanoma was more than 100 µM throughout.

For `CC(C)c1c(-c2ccccc2)nc2c(C#N)c[nH]n2c1=O`, the GI50 in the assay on 786-0 renal was 35.1 µM; with HCC-2998 colon it was 29 µM; in the assay on MDA-MB-231 breast, 33 µM; in the assay on NCI-H23 lung, 26.1 µM; in the assay on OVCAR-8 ovarian, 32.2 µM; with SK-MEL-28 melanoma, 33.5 µM. In addition, the GI50 in the assay with SN12C renal is 29.2 µM; in the assay on SNB-19 CNS it was 30.8 µM; in the assay on UACC-257 melanoma it was 23.1 µM; with UACC-62 melanoma it was 24.3 µM. Further, the TGI is more than 100 µM in the assay with 786-0 renal; more than 100 µM with HCC-2998 colon; more than 100 µM in the assay with MDA-MB-231 breast; more than 79.6 µM in the assay with NCI-H23 lung; more than 100 µM in the assay on OVCAR-8 ovarian; more than 100 µM with SK-MEL-28 melanoma. In addition, the TGI with SN12C renal was more than 100 µM; in the assay with SNB-19 CNS, more than 100 µM; with UACC-257 melanoma it was 66.9 µM; with UACC-62 melanoma, 72.2 µM.

Consider `CC1CCC2(NC1)OC1CC3C4CC=C5CC(O)CCC5(C)C4CCC3(C)C1C2C` (centres undefined), for which the GI50 with 786-0 renal is 14.5 µM and 3.24 µM; in the assay on HCC-2998 colon it was 31.7 µM and 15.2 µM; in the assay on OVCAR-8 ovarian, 10.6 µM and 5.16 µM; in the assay on SK-MEL-28 melanoma, 56.4 µM and 25.6 µM; with SNB-19 CNS it was 18.9 µM and 6.38 µM. Moreover, the TGI with 786-0 renal is 30.1 µM and 11.9 µM; with HCC-2998 colon it was > 100 µM and 56 µM; in the assay with MDA-MB-231 breast, 51.7 µM and 37 µM; in the assay on NCI-H23 lung it was more than 100 µM; in the assay with OVCAR-8 ovarian it was 35.9 µM and 49 µM; in the assay with SK-MEL-28 melanoma it was more than 100 µM. In addition, the TGI in the assay on SN12C renal was 50.8 µM and 38.4 µM; in the assay with SNB-19 CNS it was 99.5 µM and 62.1 µM; in the assay with UACC-257 melanoma, more than 100 µM; in the assay on UACC-62 melanoma, 65.1 µM and 50.4 µM.

In the case of `O=C(O)c1ccc(CI)cc1`, the TGI is 10.8 µM in the assay on 786-0 renal; 35.6 µM in the assay with HCC-2998 colon; 37.6 µM in the assay with MDA-MB-231 breast; 33.1 µM with NCI-H23 lung; 37.3 µM in the assay with OVCAR-8 ovarian; 31.9 µM with SK-MEL-28 melanoma. In addition, the TGI in the assay on SN12C renal was 34.7 µM; in the assay with SNB-19 CNS, 31.9 µM; with UACC-257 melanoma, 38.9 µM; in the assay with UACC-62 melanoma, 26.4 µM.
